Source: ChEMBL document CHEMBL3525974 (Drug Metab Dispos, 2012)

What was measured:
Type in all cases: ADME
Plasma [1] = assay: Maximum plasma concentration in healthy human at 400 mg co-administered with 50 mg ritonavir; parameters: dose 400 mg
Plasma [2] = assay: Maximum plasma concentration in healthy human at 400 mg; parameters: dose 400 mg
Liver microsome [3] = assay: Drug metabolism in human liver microsomes treated with lopinavir at 30 uM preincubated for 5 mins prior NADPH addition measured after 50 mins by MS/MS spectroscopy
Liver microsome [4] = assay: Retention time in human liver microsomes at 30 uM preincubated for 5 mins prior NADPH addition measured after 50 mins by UPLC-TOFMS analysis

SMILES	Cmax (Plasma [1]) [ng/mL]	Cmax (Plasma [2]) [ng/mL]	Drug metabolism (Liver microsome [3])	Retention_time (Liver microsome [4]) [min]
Cc1cccc(C)c1OCC(=O)N[C@@H](Cc1ccccc1)[C@@H](O)C[C@H](Cc1ccccc1)NC(=O)[C@H](C(C)C)N1CCCNC1=O [LOPINAVIR]	5500	100	–	–
CC(C)[C@@H](C(=O)N[C@@H](Cc1ccccc1)C[C@H](O)[C@H](Cc1ccccc1)NC(=O)/C=N/NC(N)=O)N1CCCNC1=O	–	–	metabolite_detected	4.99
